From the NIST ThermoML archive (doi:10.1021/je049661s)

What was measured:
[1] = 101.3 kPa, Liquid
[2] = xn = mol fraction of the nth substance listed; settings: 101.3 kPa, Liquid

C1CCCCC1 [cyclohexane]
[1]
Settings	mass density [kg/m3]	viscosity [mPa·s]
298.15 K	773.9	0.8945
303.15 K	768.6	0.8284
308.15 K	761.2	0.7637

C1CCCCC1 [cyclohexane] + O=C1CCCCC1
[2], x1 = 1
Settings	mass density [kg/m3]	viscosity [mPa·s]
298.15 K	773.9	0.8945
303.15 K	768.6	0.8284
308.15 K	761.2	0.7637

C1CCCCC1 [cyclohexane] + O=[N+]([O-])c1ccccc1
[2], x1 = 1
Settings	mass density [kg/m3]	viscosity [mPa·s]
298.15 K	773.9	0.8945
303.15 K	768.6	0.8284
308.15 K	761.2	0.7637

O=C1CCCCC1 [cyclohexanone]
[1]
Settings	mass density [kg/m3]	viscosity [mPa·s]
298.15 K	941	2.021
303.15 K	937.4	1.806
308.15 K	936.5	1.585

O=C1CCCCC1 [cyclohexanone] + C1CCCCC1
[2]
Settings	mass density, 298.15 K [kg/m3]	mass density, 303.15 K [kg/m3]	mass density, 308.15 K [kg/m3]	viscosity, 298.15 K [mPa·s]	viscosity, 303.15 K [mPa·s]	viscosity, 308.15 K [mPa·s]
x2 = 0	941	937.4	936.5	2.021	1.806	1.585
x2 = 0.0964	921.6	917.9	916.6	1.852	1.661	1.485
x2 = 0.2003	901.3	897.6	895.7	1.682	1.522	1.384
x2 = 0.2916	883.8	880.2	878.3	1.541	1.406	1.296
x2 = 0.3895	866	862.8	860.3	1.403	1.294	1.203
x2 = 0.4894	–	845.5	842.6	–	1.184	1.112
x2 = 0.4895	848.9	–	–	1.275	–	–
x2 = 0.5886	–	828.7	825.6	–	1.084	1.025
x2 = 0.5887	832.5	–	–	1.163	–	–
x2 = 0.6957	815.4	811.6	807.5	1.063	0.9925	0.9408
x2 = 0.7951	800.3	796.3	791.3	0.9917	0.9237	0.8704
x2 = 0.8968	–	781.8	775.5	–	0.8707	0.8101
x2 = 0.8969	786.5	–	–	0.9386	–	–

O=C1CCCCC1 [cyclohexanone] + O=[N+]([O-])c1ccccc1
[2], x1 = 1
Settings	mass density [kg/m3]	speed of sound [m/s]	viscosity [mPa·s]
298.15 K	941	1847.7	2.021
303.15 K	937.4	–	1.806
308.15 K	936.5	–	1.585

O=[N+]([O-])c1ccccc1 [nitrobenzene]
[1]
Settings	mass density [kg/m3]	speed of sound [m/s]	viscosity [mPa·s]
298.15 K	1198.5	1648.4	1.686
303.15 K	1193.6	–	1.619
308.15 K	1191.1	–	1.554

O=[N+]([O-])c1ccccc1 [nitrobenzene] + C1CCCCC1
[2]
Settings	mass density, 298.15 K [kg/m3]	mass density, 303.15 K [kg/m3]	mass density, 308.15 K [kg/m3]	viscosity, 298.15 K [mPa·s]	viscosity, 303.15 K [mPa·s]	viscosity, 308.15 K [mPa·s]
x2 = 0	1198.5	1193.6	1191.1	1.686	1.619	1.554
x2 = 0.0951	1160.4	1158	1156	1.589	1.527	1.489
x2 = 0.1908	1121.8	1119.7	1117.6	1.482	1.423	1.385
x2 = 0.2875	1080.5	1078	1075.5	1.369	1.313	1.276
x2 = 0.3866	1037.9	1035	1031.9	1.26	1.21	1.168
x2 = 0.4828	996	993	990	1.167	1.117	1.074
x2 = 0.5865	950.4	947.6	945	1.083	1.032	0.9873
x2 = 0.685	907.2	905	902.3	1.022	0.968	0.9182
x2 = 0.7901	861.6	860	856.6	0.9712	0.9142	0.8626
x2 = 0.896	816.9	814.4	809.1	0.9338	0.874	0.8182

O=[N+]([O-])c1ccccc1 [nitrobenzene] + O=C1CCCCC1
[2]
Settings	mass density, 298.15 K [kg/m3]	mass density, 303.15 K [kg/m3]	mass density, 308.15 K [kg/m3]	speed of sound, 298.15 K [m/s]	speed of sound, 303.15 K [m/s]	speed of sound, 308.15 K [m/s]	viscosity, 298.15 K [mPa·s]	viscosity, 303.15 K [mPa·s]	viscosity, 308.15 K [mPa·s]
x2 = 0	1198.5	1193.6	1191.1	1648.4	–	1961	1.686	1.619	1.554
x2 = 0.098	1169.6	1167.6	1166.8	1696	1842.8	1991	1.752	1.645	1.556
x2 = 0.1946	1141.8	1140.8	1140.3	1733	1873	2019.9	1.785	1.666	1.557
x2 = 0.2933	1114.5	1113.4	1112.9	1764.1	1901.5	2041.5	1.802	1.678	1.559
x2 = 0.3938	1087.5	1085.6	1084.9	1790	1927.7	2058.6	1.812	1.685	1.561
x2 = 0.495	1061.3	1058.9	1057.9	1811.2	1945	2069.7	1.827	1.695	1.562
x2 = 0.592	1036.9	1034.5	1033.4	1825.7	1957	2076.4	1.848	1.704	1.565
x2 = 0.6945	1011.6	1009.6	1008.6	1839.8	1962	2080.5	1.879	1.721	1.567
x2 = 0.7966	987.5	985.7	985	1848.3	1963	2080	1.921	1.749	1.571
x2 = 0.8973	963.4	961.9	961.4	1853.5	1964.1	2081.5	1.97	1.778	1.577
